*1 amine or outer side, *2 acyl side, *3 side chain or, on linkers, in order; H or OH if unused. Where a SMILES comes first, the peptide text is derived from it. Bridges are numbered along the chain shown (N, C = ends). [ ]: non-standard residue; d: D form. Phenylene(1,4-NHCOCH2)2 = O=C(C[*:1])Nc1ccc(NC(=O)C[*:2])cc1
Target: T1, CHIP23-303 recombinant protein (Homo sapiens, UniProt Q9UNE7)
T1 construct: 6xHis (N, cleaved yes); TEV site (N, cleaved yes); made in house; host or cells: E. coli BL21 CodonPlus
T1 sequence (Q9UNE7 23-303): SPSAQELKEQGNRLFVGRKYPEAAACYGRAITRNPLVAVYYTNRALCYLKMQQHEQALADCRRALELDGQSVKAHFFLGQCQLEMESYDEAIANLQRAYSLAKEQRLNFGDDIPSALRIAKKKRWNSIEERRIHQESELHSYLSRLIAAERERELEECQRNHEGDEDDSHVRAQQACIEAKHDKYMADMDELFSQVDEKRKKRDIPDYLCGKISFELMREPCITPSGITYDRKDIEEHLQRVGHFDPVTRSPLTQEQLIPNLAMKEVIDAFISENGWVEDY
Test: Competition fluorescence polarization with CHIP23-303 and HSP70-derived probe 5FAM-bAla-[…]
Format: binding
Settings: competition FP, 400 nM CHIP23-303, 20 nM probe, 1 hour at room temperature; read-out: Measured KD
Protocol: For the competition FP of CHIP, stapled peptides at 10 mM in DMSO were serially diluted 1:3 in DMSO for a total of 11 concentrations using a Mosquito LV (SPT Labtech), then diluted 1000-fold in buffer (1×HBS-P+, Cytiva) in duplicate by the Mosquito LV (SPT Labtech) into a black polystyrene 384-well plate (Corning) (11-point three-fold peptide dilution series with top concentration=10 μM). The assay was performed with 400 nM CHIP23-303 recombinant protein as target, and 20 nM BCHIP-binding peptide as probe (5FAM-bAla-[…] (SEQ ID NO: 18), derived from HSP70). The plate was incubated and protected from light for 1 hour at room temperature prior to reading. Reads were performed on a CLARIOstar plate reader (BMG Labtech) with excitation at 485 nm, emission at 525 nm, and cutoff at 504 nm. Data were fitted to a 1:1 binding model with Hill slope using an in-house script.
In some embodiments, CHP polypeptide was prepared as follows: CHIP (residues 23-303 for competition FP and 23-154 for crystallography) with an N-terminal 6×His-TEV tag was recombinantly expressed in E. coli BL21 CodonPlus cells (Agilent) from a pET21b-derived expression vector (Novagen) (“6×His” disclosed as SEQ ID NO: 13). The cells were induced at OD600=0.6 with 1 mM IPTG for 4 hours at 37° C., then harvested and resuspended in 50 mM Tris-HCl pH 8.0, 500 mM NaCl, 10 mM imidazole, 10% glycerol, and 10 mM ß-me. For purification, the pellet was lysed with a tip sonicator with power level set at 400 W, 3 seconds on and 3 seconds off for 20 min, pelleted at 22,000×g for 30 minutes at 4° C. The supernatant was purified with Ni-NTA resin (Qiagen), eluting with 250 mM imidazole. Eluted proteins were pooled, concentrated, and TEV-cleaved by adding TEV protease at a ratio of 1:10 protease to protein and incubated overnight at 4° C. TEV-cleaved proteins were loaded onto a Superdex™ 10/300 75 pg (Cytiva) SEC column, and eluted in 50 mM HEPES, pH 8.0, 150 mM NaCl, 10% glycerol, 2 mM DTT. Fractions containing pure protein were collected, pooled, concentrated to 30 mg/mL and stored at −80° C. […]

Compound	Kd [nM]
CC[C@@H](C)[C@@H](NC(=O)[C@H]1CSCC(=O)Nc2ccc(cc2)NC(=O)CSC[C@@H](NC(=O)[C@@H](CC(C)C)NC(=O)[C@@H](CC(=O)O)NC(=O)[C@@H](CC(C)C)NC(=O)[C@H]2CCCN2C(C)=O)C(=O)N[C@H](Cc2ccc(O)cc2)C(=O)N[C@H](Cc2c[nH]c3ccccc23)C(=O)N[C@H](C)C(=O)N[C@H](CO)C(=O)N[C@H](CC(C)C)C(=O)N[C@H](Cc2c[nH]cn2)C(=O)N1)C(=O)N[C@@H](C(=O)N[C@H](CO)C(N)=O)C(C)C [H204, Ac-pldlcywaslhcivs-NH2] (Ac-[dP][dL][dD][dL][dC][dY][dW][dA][dS][dL][dH][dC][dI][dV][dS]-NH2; linker 5-12 via Phenylene(1,4-NHCOCH2)2)	770
CC[C@@H](C)[C@@H](NC(=O)[C@@H](CC(N)=O)NC(=O)[C@@H](Cc1ccc(O)cc1)NC(=O)[C@H]1CSCC(=O)Nc2ccc(cc2)NC(=O)CSC[C@@H](NC(=O)[C@@H](CC(=O)O)NC(=O)[C@@H](CCC(=O)O)NC(=O)[C@@H](Cc2c[nH]c3ccccc23)NC(=O)[C@H]2CCCN2C(C)=O)C(=O)N[C@H](C)C(=O)N[C@H](Cc2c[nH]c3ccccc23)C(=O)N[C@H](Cc2ccccc2)C(=O)N[C@H](C)C(=O)N[C@H](Cc2c[nH]c3ccccc23)C(=O)N[C@H](C)C(=O)N1)C(N)=O [H201, Ac-pwedcawfawacyni-NH2] (Ac-[dP][dW][dE][dD][dC][dA][dW][dF][dA][dW][dA][dC][dY][dN][dI]-NH2; linker 5-12 via Phenylene(1,4-NHCOCH2)2)	470

— patent US20240391956A1, “STAPLED PEPTIDES AND METHODS THEREOF” (FOG PHARMACEUTICALS, INC., priority 2023, published 2024)
